Results taken from patent US9309247B2, “2-substituted imidazo[4,5-D]phenanthroline derivatives and their use in the treatment of cancer” (Aptose Biosciences Inc., priority 2013, dated 2016).

Legend:
[1] = tested on: human colon carcinoma cells KM12; assay: XTT cell proliferation assay, KM12; format: cell-based; conditions: 5 days incubation, read-out: Antiproliferative activity, Colon KM12
Protocol: (§1) Exemplary compounds 1-8 were tested for anti-cancer activity in vitro using human renal cancer cells (ACHN and CAK-1), human pancreatic cells (BXPC3 and SU-86-86), human prostate cancer cell (DU14), human colon carcinoma cells (HT-29 and KM-12), leukemia cells (HL60), brain cancer/tumour cells (SK-A-AS, U87-MG), and human non-small cell lung cancer cells (H460). Compounds 1-8 are the specific embodiments of Formula (I) and Formula (IV) as described above in this application.
(§2) The cells were maintained as a monolayer in a growth medium; McCoy's 5A modified medium (Sigma, St. Louis, Mo.), supplemented with 2 mM L-glutamine (Gibco, Grand Island, N.Y.), 10% fetal bovine serum (FBS) (Multicell, WISENT Inc. St-Bruno, QC), antibiotic-antimycotic (Multicell), at 37° C. in a 5% CO2-humidified incubator. Cells were transferred onto 150 mm tissue culture plates and grown until sub-confluency (70-80%) prior to their use. The in vitro antiproliferative activity of compounds was evaluated by incubating the cells with varying concentrations of exemplary compounds as shown in Table 1 for 5 days. The efficacy of these compounds in this cell proliferation assay was measured based in the ability of live cells to reduce the tetrazolium salt XTT to orange colored compounds of formazan (XTT cell proliferation kit IT, Roche Applied Science, Montreal, QC).

[2] = tested on: human colon adenocarcinoma cells HT-29; assay: Colon carcinoma (HT-29) xenograft model; format: in vivo, CD-1 female nude mice; conditions: 50 mg/kg/d, five days on, 2 day break, 5 weeks, vs vehicle-treated control, FIG. 1
Protocol: (§3) The ability of compound 1 to inhibit colon tumour growth in vivo was tested as follows. CD-1 female nude mice (7 mice per treatment group, 6-7 weeks) were injected […] with human colon adenocarcinoma cells HT-29 cells (3×10^6 cells in 0.1 ml PBS). Treatment of the mice with vehicle or 50 mg/kg/d of […] was initiated 5 days post-inoculation (size of tumours=20-40 mm^3) for 7-day cycles of five days followed by a 2 day break for 5 weeks. The size of the tumours was measured over the course of the experiment using calipers, and the weight of the tumours was measured after the animals were sacrificed.

[3] = tested on: colon carcinoma SW-620 cells; assay: Colon carcinoma (SW-620) xenograft model; format: in vivo, CD-1 female nude mice; conditions: vs vehicle-treated control, FIG. 3
Protocol: as §3
(§4) Similar tests were conducted with colon carcinoma KM-12 cells and colon carcinoma SW-620 cells.

[4] = tested on: non-small cell lung cancer cells HOP-92; assay: XTT cell proliferation assay, HOP-92; format: cell-based, human; conditions: 5 days incubation, read-out: Antiproliferative activity, NSCLC HOP-92
Protocol: [The procedure below names another cell line; the source lists this cell line under the same test.] as §1, §2

[5] = tested on: human renal cancer cells ACHN; assay: XTT cell proliferation assay, ACHN; format: cell-based; conditions: 5 days incubation, read-out: Antiproliferative activity, Kidney ACHN
Protocol: as §1, §2

[6] = tested on: non-small cell lung cancer cells EKVX; assay: XTT cell proliferation assay, EKVX; format: cell-based, human; conditions: 5 days incubation, read-out: Antiproliferative activity, NSCLC EKVX
Protocol: [The procedure below names another cell line; the source lists this cell line under the same test.] as §1, §2

[7] = tested on: non-small cell lung cancer cells H226; assay: XTT cell proliferation assay, H226; format: cell-based, human; conditions: 5 days incubation, read-out: Antiproliferative activity, NSCLC H226
Protocol: [The procedure below names another cell line; the source lists this cell line under the same test.] as §1, §2

[8] = tested on: human colon carcinoma cells HT-29; assay: XTT cell proliferation assay, HT-29; format: cell-based; conditions: 5 days incubation, read-out: Antiproliferative activity, Colon HT-29
Protocol: as §1, §2

[9] = tested on: WR19L (mouse, lymphoma); assay: Cell growth inhibition assay, WR19L; format: cell-based; conditions: five days of incubation, XTT; read-out: IC50 WR19L (ms)
Protocol: (§5) In this study, compounds 1-8 were screened in vitro against a panel of four mouse lymphoma cell lines and two human lymphoma cell line for cell growth inhibition activity. Following treatment, half maximal inhibitory concentrations (IC50) were determined with the objective of selecting the most efficacious compounds for evaluation of in vitro absorption, distribution, metabolism, and excretion (ADME) screening.
(§6) Similarly, human Burkitt's lymphoma Ramos cells (ATCC CRL-1596) were grown in suspension in Roswell Park Memorial Institute (RPMI) 1640 medium supplemented with 10% fetal bovine serum (FBS), 10 mM HEPES KOH pH 7.4, and 2 mM sodium pyruvate. Mouse P388D1 (ATCC CCL-46) and WR19L (ATCC TIB-52) cells were grown in suspension in Dulbecco's Modified Eagle Medium (DMEM) with 10% fetal bovine serum (FBS), 10 mM HEPES, and 2 mM sodium pyruvate. Mouse WEHI231 (ATCC CRL-1702) and EL4 (ATCC TIB-39) cells were grown in suspension in DMEM with 10% fetal bovine serum (FBS), 10 mM HEPES KOH pH 7.4, 2 mM sodium pyruvate, and 0.05 mM β-mercaptoethanol. All cells were maintained at 37° C. in an atmosphere of 5% CO2 in air. Logarithmically growing cells were routinely sub-cultured twice weekly. Briefly, cells were collected by centrifugation, resuspended in pre-warmed media, and diluted 1:10 into a 75 cm^2 flask.
(§7) Cells were subcultured and 4×10^3 cells (in 50 μL) were transferred to each well in a Falcon 96-well tissue culture plate. Exemplary compounds were dissolved in pure dimethyl sulphoxide (DMSO) at a concentration of 10 mM. From this 10 mM stock solution, 12 successive serial dilutions were made in DMSO (2.5 fold dilutions), ranging from 0.52 μM to 10 mM. Using these stock dilutions, 5 μL of each were added to 500 μL of media, and 50 μL of this was added to the cells. The final concentrations being tested ranged from 0.0026 μM to 50 μM. Each concentration was tested in triplicate, and DMSO and untreated cells were also included as controls. After five days of incubation with the compounds, cell viability was determined using the XTT cell proliferation kit (Roche, Cat. No. 11 465 015 001). Following the XTT protocol, 4.5-24 hours after addition of the reagent, the plates were read in a μQuant 96-well plate spectrophotometer (Biotek Instruments Inc.) and the results analyzed to determine the IC50.

[10] = tested on: leukemia cells HL60; assay: XTT cell proliferation assay, HL60; format: cell-based, human; conditions: 5 days incubation, read-out: Antiproliferative activity, Leuk. HL60
Protocol: as §1, §2

[11] = tested on: colon carcinoma KM-12 cells; assay: Colon carcinoma (KM-12) xenograft model; format: in vivo, CD-1 female nude mice; conditions: vs vehicle-treated control, FIG. 2
Protocol: as §3, §4

[12] = tested on: EL4 (mouse, lymphoma); assay: Cell growth inhibition assay, EL4; format: cell-based; conditions: five days of incubation, XTT; read-out: IC50 EL4 (ms)
Protocol: as §5, §6, §7

[13] = tested on: P388D1 (mouse, lymphoma); assay: Cell growth inhibition assay, P388D1; format: cell-based; conditions: five days of incubation, XTT; read-out: IC50 P388D1 (ms)
Protocol: as §5, §6, §7

Question: What does the source list for `FC1(F)Oc2ccc(-c3nc4c5cccnc5c5ncccc5c4[nH]3)cc2O1` [Compound 1]?
Answer: IC50 [1]: 330 nM; inhibition of tumour growth, as measured by tumour size [2]: able to inhibit tumour growth; inhibition of tumour growth, as measured by tumour size [3]: able to inhibit tumour growth; IC50 [4]: 160 nM; IC50 [5]: 170 nM; IC50 [6]: 220 nM; IC50 [7]: 410 nM; IC50 [8]: 350 nM; IC50 [9]: 82 nM; IC50 [10]: 30 nM; inhibition of tumour growth, as measured by tumour size [11]: able to inhibit tumour growth; IC50 [12]: 483 nM; IC50 [13]: 370 nM
